For one data set, the system named is p21 promoter. Description: p21 induction capacity, cellular method (ZsGreen reporter in A2780 clones). The conditions noted are these: A2780 clones with p21 1300 bp promoter-ZsGreen reporter, 24 hours treatment, percentage of control. The data set is classed as cell-based, human. As for the experimental part: A first method tests the capacity of compounds to induce p21 as the consequence of HDAC inhibition at the cellular level. […] The reporter gene is a fluorescent protein and the expression of the reporter gene is measured as the amount of fluorescent light emitted (see example C.6.a.). The second method is an in vivo method wherein mice are used for screening the pharmaceutical activity of a compound. The above described stably transformed tumour cells can be administered to mice in an amount sufficient to effect production of a tumour. After the tumour cells had sufficient time to form a tumour, a potentially active compound can be administered to the animals and the effect of said compound On the tumour cells is evaluated by measuring the expression of the reporter gene. […]
The A2780 selected clones were expanded and seeded at 10000 cells per well into 96-well plates. […] The p21 promoter activation leading to ZsGreen production and thus fluorescence, was monitored by the Ascent Fluoroskan (Thermo Labsystems, Brussels, Belgium).
For each experiment, controls (containing no drug) and a blank incubation (containing no cells or drugs) were run in parallel. […] For each sample, the value for p21 induction was expressed as the percentage of the value for p21 present in the control. […]

Data set [1] can be described thus: Metabolic stability with rat hepatocytes cell culture. The note with it: rat hepatocyte cell cultures, 5 μM. The data set is classed as in vitro ADME. The text has this: Metabolism of drugs means that a lipid-soluble xenobiotic or endobiotic compound is enzymatically transformed into (a) polar, water-soluble, and excretable metabolite(s). The major organ for drug metabolism is the liver. […] However, some metabolites may have enhanced activity or toxic effects. Thus drug metabolism may include both “detoxication” and “toxication” processes. One of the major enzyme systems that determine the organism's capability of dealing with drugs and chemicals is represented by the cytochrome P450 monooxygenases, which are NADPH dependent enzymes. Metabolic stability of compounds can be determined in vitro with the use of subcellular human tissue (see example C.5.a.). Here metabolic stability of the compounds is expressed as % of drug metabolised after 15 minutes incubation of these compounds with microsomes. Quantitation of the compounds was determined by LC-MS analysis. Metabolic stability of compounds can also be determined by calculating the half live of compounds in rat hepatocyte cells (see example C.5.b.). […]
Samples were prepared for LC-MS by addition of two volumes of DMSO. […] Of the resulting supernatant 50 μl was analysed by LC-MS. […]
Total injection volume of samples was 50 μL. […] The mass spectrometer was operated in positive ion mode in SIM adjusted to the mass of […] with a scan width of 1 Da for quantification purposes. […]

As to `O=C(NO)c1cnc(N2CCC(CNC(/C=C/c3ccccc3)CO)CC2)nc1` (centres unmarked) [Compound 1], in the data set on p21 promoter, the p21 induction entry is “significant induction (Percentage induction higher than 130% was defined as significant induction)”. In data set [1], this compound displayed an in vitro half-live of 103 min.

Values taken from patent US8377935B2, “Substituted aminopropenyl piperidine or morpholine derivatives as novel inhibitors of histone deacetylase” (Janssen Pharmaceutica N.V., priority 2005, dated 2013).
